Experimental data: patent publication US4160095A, “7,8-Didehydro-PGI1 amides” (The Upjohn Company, priority 1978, dated 1979)

System: endoperoxide cyclooxygenase (PG synthetase)
Assay: Inhibition of oxygen uptake in the conversion of unsaturated fatty acid to prostaglandin endoperoxides (cyclooxygenase / PG synthetase inhibition, standard in vitro laboratory test)
Type: biochemical
Excerpt: The novel prostacyclin analogs disclosed herein are all inhibitors of endoperoxide cyclooxygenase, an enzyme which converts unsaturated fatty acids (e.g., arachadonic acid) to prostaglandin endoperoxide intermediate (e.g., PGH2). The inhibition of this enzyme (also known as PG synthetase) is established as a standard in vitro laboratory test which measures oxygen uptake in the conversion of the unsaturated fatty acid to the endoperoxides, e.g., [drawing 22]
The efficacy of the novel prostacyclin analogs herein as inhibitors of cyclooxygenase (PG synthetase) is indicated in the following comparison between 2-(acetylozy)benzoic acid (aspirin) and 7,8-didehydro-6β-PGI1, methyl ester:
For further description of PG synthetase inhibition, see Vane, Nature New Biology, 231-232 (1971) and Takeguchi, et al., Prostaglandins 2:169 (1972).

Row | Structure (SMILES) | Percent inhibition of Oxygen Uptake (Concentration 5 × 10^-4 M) | Percent inhibition of Oxygen Uptake (Concentration 5 × 10^-5 M, result in words)
1 | CC(=O)Oc1ccccc1C(=O)O [2-(Acetyloxy)-benzoic acid, 2-(acetyloxy)benzoic acid] | 100% | Inactive
2 | CCCCC[C@H](O)/C=C/[C@@H]1C2=C[C@H](CCCCC(=O)OC)O[C@H]2C[C@H]1O [7,8-Didehydro-6β-PGI methyl ester, 7,8-didehydro-6β-PGI1, methyl ester] | 46% | 
